Experimental data as given in patent publication US12534762B2, “Treating atopic dermatitis by targeting the WNT pathway” (Children's Medical Center Corporation, priority 2018, dated 2026).
“Also recorded” adds a separate entry of the source. Values belong to the compound of their own block, whether it stands above or below them. Peptide text beside a SMILES is read from it. * marks the point of attachment. Cbz = O=C(OCc1ccccc1)*

Tests used:
FZD5 = experiment: Immunoblot of FZD5 (immature and mature forms) with lysosome/proteasome inhibitors; type: cell-based, human; settings: HEK293T cells; for TMEM79-induced degradation of immature FZD5: TMEM79 overexpressed; for levels of immature and mature forms of FZD5: absence or presence of TMEM79
Experimental: Cell culture, immunofluorescence, RNA interference and dual luciferase assay. HEK293T cells (ATCC #CRL-11268) and its derivatives were maintained in DMEM supplemented with 10% FBS, penicillin, and streptomycin. ZRKO (ZNRF3 and RNF43 double knockout) cell line was a gift from F. Cong. The FZD null cell line (Fz1-10 knockout) was a gift from B. Vanhollebeke. For immunofluorescence, HEK293T cells were grown on poly-L-lysine-coated glass coverslips. Cells were transfected with Snap-FZD5 and after 24 hours washed with PBS and fixed with 4% paraformaldehyde for 10 min at room temperature. The cells were labeled with 1 μM SNAP-Surface® 488 (BioLabs) for 15 min at room temperature. To visualize endogenous TMEM79, PDI, TGN46 and EEA1, cells were permeabilized with 0.2% Triton X-100 in PBS for 5 min, blocked with 10% normal goat serum and then incubated with respective antibodies for 1 hour at room temperature followed by incubation with secondary antibodies (Alexa Fluor 594 goat anti-rabbit immunoglobulin and Alexa Fluor 488 goat anti-mouse immunoglobulin, Invitrogen). Cells were mounted in Prolong Diamond Antifade Mountant with DAPI (Thermofisher Scientific) and imaged using a Zeiss LSM700 confocal microscope. siRNA transfection was done using Lipofectamine RNAiMAX (Thermofisher Scientific, #13778075). Duplex siRNAs targeting TMEM79 and ZNRF3 were purchased from Sigma. The sequences are as follows: TMEM79-1, 5-[…]dTdT-3 (SEQ ID NO: 19), TMEM79-2, 5-CCAUGAGUUCCCGCCUGAUdTdT-3 (SEQ ID NO: 20). ZNRF3, 5-[…]dTdT-3 (SEQ ID NO: 21). For Top-Flash reporter assay, cells were transduced sequentially with Supertopflash (7TFP, Addgene) and EF1α-Renilla lentiviruses. Cells were plated in 24 well plates and transfected the following day in triplicate using FuGENE HD (Promega, #E2312). Dual luciferase reporter assays were performed using Dual-Luciferase® Reporter Assay System (Promega, #E1960) according to manufacturer's instruction. Representative results are shown from one of three (or more) independent experiments. Immunoblotting, cell surface protein labeling and immunoprecipitation. Total cell lysates in NP40 lysis buffer (50 mM Tris, pH 7.5, 150 mM NaCl, 1 mM EDTA, 1% NP40, 10% glycerol, 10 mM NaF, and protease inhibitor cocktail, pH=7.4) were prepared by gentle rotating at 4° C., followed by centrifugation at top speed for 10 min at 4° C. Samples were run on a SDS-PAGE and transferred to Immobilon-P membrane. To isolate the cytoplasmic fraction of β-catenin, cells were incubated with 0.015% digitonin (in PBS supplemented protease inhibitor cocktail) by gentle rotating at 4° C. for 10 min. Indirect immunochemistry using a secondary antibody conjugated with horseradish peroxidase was visualized using ECL reagents on LAS-4000 imager (FujiFilm). Cell surface proteins were biotinylated using EZ-LinkTMSulfo-NHS—SS-Biotin (Thermo Fisher Scientific) according to manufacturer's protocol. Biotinylated proteins were enriched by Pierce® Streptavidin agarose resins. For immunoprecipitation, transfected HEK293T cells were lysed in NP40 lysis buffer. Cell lysates were incubated with antibody conjugated Agarose beads (Pierce™ Anti-c-Myc Agarose, #20168; Pierce™ Anti-HA Agarose, #26181; Anti-Flag M2 affinity gel, Sigma, A2220; Anti-V5 Agarose Affinity Gel, Sigma, A7345) at 4° C. over night. Beads were washed with lysis buffer 5 times and proteins were eluted in 2× sample buffer.

Wnt/β-catenin signaling = experiment: Top-Flash dual luciferase reporter assay; type: cell-based, human; settings: HEK293T cells
Experimental: (§1) Cell culture, immunofluorescence, RNA interference and dual luciferase assay. HEK293T cells (ATCC #CRL-11268) and its derivatives were maintained in DMEM supplemented with 10% FBS, penicillin, and streptomycin. ZRKO (ZNRF3 and RNF43 double knockout) cell line was a gift from F. Cong. The FZD null cell line (Fz1-10 knockout) was a gift from B. Vanhollebeke. For immunofluorescence, HEK293T cells were grown on poly-L-lysine-coated glass coverslips. Cells were transfected with Snap-FZD5 and after 24 hours washed with PBS and fixed with 4% paraformaldehyde for 10 min at room temperature. The cells were labeled with 1 μM SNAP-Surface® 488 (BioLabs) for 15 min at room temperature. To visualize endogenous TMEM79, PDI, TGN46 and EEA1, cells were permeabilized with 0.2% Triton X-100 in PBS for 5 min, blocked with 10% normal goat serum and then incubated with respective antibodies for 1 hour at room temperature followed by incubation with secondary antibodies (Alexa Fluor 594 goat anti-rabbit immunoglobulin and Alexa Fluor 488 goat anti-mouse immunoglobulin, Invitrogen). Cells were mounted in Prolong Diamond Antifade Mountant with DAPI (Thermofisher Scientific) and imaged using a Zeiss LSM700 confocal microscope. siRNA transfection was done using Lipofectamine RNAiMAX (Thermofisher Scientific, #13778075). Duplex siRNAs targeting TMEM79 and ZNRF3 were purchased from Sigma. […]

β-catenin = experiment: Immunoblot of cytosolic β-catenin after siRNA depletion of TMEM79 or ZNRF3; type: cell-based, human; settings: HEK293T cells
Experimental: as §1

[1] = test system: phosphorylated LRP6 and phosphorylated DVL; experiment: Immunoblot of phosphorylated LRP6 and DVL2 in T79KO and ZRKO cells; type: cell-based, human
Experimental: as §1

ma/ma mice = experiment: Topical LGK974 cream on Tmem79 ma/ma mice, AD phenotypes; type: in vivo, mouse; settings: topical cream twice daily, dose to be determined empirically
Source text: PORCUPINE (PORCN) is an ER acyl-transferase specifically required for biogenesis and secretion of all WNT proteins. A diverse group of small molecules, referred to as IWP2, LGK974, and C59, each binds to and inhibits PORCN, thereby blocking WNT production. LGK974 and C59 are in phase I clinical trials for cancers that rely on autocrine or local WNT production (Proffitt, K. D., et al., Cancer Res, 2013, 73 (2): p. 502-7; Jiang, X., et al., Proc Natl Acad Sci USA, 2013. 110 (31): p. 12649-54). […] 111 (6): p. 2325-30; Apelian, H. M. C., NJ), Coffin-beach, David (Kendall Park, NJ), Huq, Abu S. (Plainsboro, NJ), Pharmaceutical composition of florfenicol, in U.S. Pat. No. 5,082,862, S. Corporation, January 1992; Malook, S. U. N., GB5), Boon, Peter F. G. (Horsham, GB2), Morgan, James P. (Navan, IE), Method of reducing the swelling or pain associated with antibiotics compositions, in U.S. Pat. No. 4,772,460, L. Bimeda Research and Development, September 1988.). […]
ma ma mice in C57BL/6 have been used as a reliable model for human AD and will be housed under the SPF (specific pathogen-free) conditions at BCH, and analyzed at 2, 4, and 8 weeks for skin phenotypes as described (Sasaki, T., et al., J Allergy Clin Immunol, 132 (5): p. 1111-1120 e4, 2013; Saunders, S. P., et al., J Allergy Clin Immunol, 132 (5): p. 1121-9, 2013). […]

SMILES: CO/C1=C\C(C)=C\[C@@H](C)[C@@H](O)[C@@H](C)C/C(C)=C/C=C/[C@H](OC)[C@@H]([C@@H](C)[C@@H](O)[C@H](C)[C@@]2(O)C[C@@H](O)[C@H](C)[C@@H](C(C)C)O2)OC1=O [Bafilomycin A1]
TMEM79-induced lysosomal degradation of FZD5 (FZD5): prevented
TMEM79-induced degradation of immature FZD5 (FZD5): inhibited
TMEM79-induced degradation of immature FZD5 (FZD5; listed as Baf A1): blocked
levels of immature and mature forms of FZD5 (FZD5): elevated levels
levels of immature and mature forms of FZD5 (FZD5; listed as BAF A1): increased

TOP-Flash reporter induction by USP8C (Wnt/β-catenin signaling; USP8C transfected): abolished; also recorded: inhibited
elevated levels of TOP-Flash caused by depletion of TMEM79 or ZNRF3 (Wnt/β-catenin signaling; siRNA depletion): abolished; also recorded: suppressed
SMILES: Cc1ccc2nc(NC(=O)CSc3nc4c(c(=O)n3-c3ccccc3)SCC4)sc2c1 [IWP-2]
elevated levels of β-catenin protein caused by depletion of TMEM79 or ZNRF3 (β-catenin): prevented; also recorded: suppressed
elevated levels of phosphorylated LRP6 and phosphorylated DVL [1]: inhibited; also recorded: suppressed

SMILES: Cc1cc(-c2ncc(CC(=O)Nc3ccc(-c4cnccn4)cn3)cc2C)ccn1 [LG974]
AD phenotypes of ma mice (ma/ma mice): ameliorated

SMILES: CC(C)C[C@@H](C=O)NC(=O)[C@H](CC(C)C)NC(=O)[C@H](CC(C)C)NC(=O)OCc1ccccc1 [MG132] (Cbz-Leu-Leu-Leu-aldehyde)
levels of immature and mature forms of FZD5 (FZD5): did not affect
